Data as given in paper PMC9950205, “Efficacy, safety, and pharmacokinetics of teduglutide in adult Japanese patients with short bowel syndrome and intestinal failure: two phase III studies with an extension” (Surgery Today, 2022).

Test system: adult Japanese patients with SBS-IF
Experiment: Safety: treatment-emergent adverse events (TEAEs, TESAEs)
Assay type: in vivo
Description: Safety analyses included the monitoring of adverse events (AEs), body weight, BMI, vital signs, 12-lead electrocardiogram (ECG), serum biochemistry, hematology, and presence of antibodies to teduglutide. AEs were coded using the Medical Dictionary for Regulatory Activities versions 17.1 (TED-C14-004) and 21.0 (SHP633-306 and SHP633-307). Specifically, AEs were treatment-emergent AEs (TEAEs), defined as any unfavorable and unintended sign (including any abnormal laboratory finding), symptom, or disease that occurred during treatment with teduglutide, whether or not the event was considered to be related to the study drug by the clinical study investigator. AEs were also categorized as mild, moderate, or severe. […] AEs were considered related to treatment with teduglutide, or its administration, based on the investigator's medical judgment.

[1] = ≤ 24 weeks (SHP633-306 and TED-C14-004), 0.05 mg/kg/day

CC[C@H](C)[C@H](NC(=O)[C@H](Cc1ccccc1)NC(=O)[C@H](CC(=O)O)NC(=O)[C@H](CCCNC(=N)N)NC(=O)[C@H](C)NC(=O)[C@H](C)NC(=O)[C@H](CC(C)C)NC(=O)[C@H](CC(N)=O)NC(=O)[C@H](CC(=O)O)NC(=O)[C@H](CC(C)C)NC(=O)[C@@H](NC(=O)[C@@H](NC(=O)[C@H](CC(N)=O)NC(=O)[C@H](CCSC)NC(=O)[C@H](CCC(=O)O)NC(=O)[C@H](CC(=O)O)NC(=O)[C@H](CO)NC(=O)[C@H](Cc1ccccc1)NC(=O)[C@H](CO)NC(=O)CNC(=O)[C@H](CC(=O)O)NC(=O)CNC(=O)[C@@H](N)Cc1c[nH]cn1)[C@@H](C)O)[C@@H](C)CC)C(=O)N[C@@H](CC(N)=O)C(=O)N[C@@H](Cc1c[nH]c2ccccc12)C(=O)N[C@@H](CC(C)C)C(=O)N[C@H](C(=O)N[C@@H](CCC(N)=O)C(=O)N[C@H](C(=O)N[C@@H](CCCCN)C(=O)N[C@H](C(=O)N[C@H](C(=O)N[C@@H](CC(=O)O)C(=O)O)[C@@H](C)O)[C@@H](C)CC)[C@@H](C)O)[C@@H](C)CC [teduglutide]
Immune system disorders: Events (Total, 0.05 mg/kg/day): 2 n
Immune system disorders: Patients (Total, 0.05 mg/kg/day): 2 (11.1) n (%)
Infections and infestations: Events (Total, 0.05 mg/kg/day): 81 n
Infections and infestations: Patients (Total, 0.05 mg/kg/day): 12 (66.7) n (%)
Influenza: Events (Total, 0.05 mg/kg/day): 21 n
Injection site reaction: Events (Total, 0.05 mg/kg/day): 4 n
Injection site reaction: Patients (Total, 0.05 mg/kg/day): 4 (22.2) n (%)
Injury, poisoning, and procedural complications: Events (Total, 0.05 mg/kg/day): 6 n
Injury, poisoning, and procedural complications: Patients (Total, 0.05 mg/kg/day): 5 (27.8) n (%)
Insomnia: Events (Total, 0.05 mg/kg/day): 2 n
Insomnia: Patients (Total, 0.05 mg/kg/day): 2 (11.1) n (%)
Investigations: Events (Total, 0.05 mg/kg/day): 14 n
Investigations: Patients (Total, 0.05 mg/kg/day): 7 (38.9) n (%)
Metabolism and nutrition disorders: Events (Total, 0.05 mg/kg/day): 13 n
Metabolism and nutrition disorders: Patients (Total, 0.05 mg/kg/day): 7 (38.9) n (%)
Musculoskeletal and connective tissue disorders: Events (Total, 0.05 mg/kg/day): 12 n
Musculoskeletal and connective tissue disorders: Patients (Total, 0.05 mg/kg/day): 8 (44.4) n (%)
Nasopharyngitis: Events (Total, 0.05 mg/kg/day): 21 n
Nasopharyngitis: Patients (Total, 0.05 mg/kg/day): 7 (38.9) n (%)
Nausea: Events (Total, 0.05 mg/kg/day): 8 n
Nausea: Patients (Total, 0.05 mg/kg/day): 4 (22.2) n (%)
Nervous system disorders: Events (Total, 0.05 mg/kg/day): 26 n
Nervous system disorders: Patients (Total, 0.05 mg/kg/day): 8 (44.4) n (%)
Oral herpes: Events (Total, 0.05 mg/kg/day): 2 n
Oral herpes: Patients (Total, 0.05 mg/kg/day): 2 (11.1) n (%)
Oropharyngeal pain: Events (Total, 0.05 mg/kg/day): 4 n
Oropharyngeal pain: Patients (Total, 0.05 mg/kg/day): 4 (22.2) n (%)
Pruritus: Events (Total, 0.05 mg/kg/day): 2 n
Pruritus: Patients (Total, 0.05 mg/kg/day): 2 (11.1) n (%)
Psychiatric disorders: Events (Total, 0.05 mg/kg/day): 4 n
Psychiatric disorders: Patients (Total, 0.05 mg/kg/day): 3 (16.7) n (%)
Pyrexia: Events (Total, 0.05 mg/kg/day): 11 n
Pyrexia: Patients (Total, 0.05 mg/kg/day): 8 (44.4) n (%)
Renal and urinary disorders: Events (Total, 0.05 mg/kg/day): 6 n
Renal and urinary disorders: Patients (Total, 0.05 mg/kg/day): 5 (27.8) n (%)
Respiratory, thoracic, and mediastinal disorders: Events (Total, 0.05 mg/kg/day): 13 n
Respiratory, thoracic, and mediastinal disorders: Patients (Total, 0.05 mg/kg/day): 7 (38.9) n (%)
Skin and subcutaneous tissue disorders: Events (Total, 0.05 mg/kg/day): 18 n
Skin and subcutaneous tissue disorders: Patients (Total, 0.05 mg/kg/day): 9 (50.0) n (%)
Somnolence: Events (Total, 0.05 mg/kg/day): 3 n
Somnolence: Patients (Total, 0.05 mg/kg/day): 3 (16.7) n (%)
Stomatitis: Events (Total, 0.05 mg/kg/day): 4 n
Stomatitis: Patients (Total, 0.05 mg/kg/day): 4 (22.2) n (%)
Upper respiratory tract inflammation: Events (Total, 0.05 mg/kg/day): 3 n
Upper respiratory tract inflammation: Patients (Total, 0.05 mg/kg/day): 2 (11.1) n (%)
Vascular disorders: Events (Total, 0.05 mg/kg/day): 6 n
Vascular disorders: Patients (Total, 0.05 mg/kg/day): 4 (22.2) n (%)
Vascular pain: Events (Total, 0.05 mg/kg/day): 3 n
Vascular pain: Patients (Total, 0.05 mg/kg/day): 2 (11.1) n (%)
Vomiting: Events (Total, 0.05 mg/kg/day): 3 n
Vomiting: Patients (Total, 0.05 mg/kg/day): 3 (16.7) n (%)
Severity of the majority of all TEAEs (all studies): mild or moderate
Changes in clinical laboratory measures, vital signs, body weight, BMI, or ECG findings (during any of the studies): no clinically meaningful changes
AEs related to growth of pre-existing polyps of the colon or gastrointestinal cancers (during the studies): no AEs
Abdominal distension: Events [1]: 4 n
Abdominal distension: Patients [1]: 4 (22.2) n (%)
Abdominal pain: Events [1]: 5 n
Abdominal pain: Patients [1]: 5 (27.8) n (%)
Anal abscess: Events [1]: 0 n
Anal abscess: Patients [1]: 0 n (%)
Anemia: Events [1]: 2 n
Anemia: Patients [1]: 2 (11.1) n (%)
Any TEAE: Events [1]: 121 n
Any TEAE: Patients [1]: 17 (94.4) n (%)
Arthralgia: Events [1]: 0 n
Arthralgia: Patients [1]: 0 n (%)
Back pain: Events [1]: 1 n
Back pain: Patients [1]: 1 (5.6) n (%)
Blood and lymphatic system disorders: Events [1]: 4 n
Blood and lymphatic system disorders: Patients [1]: 3 (16.7) n (%)
Catheter site infection: Events [1]: 1 n
Catheter site infection: Patients [1]: 1 (5.6) n (%)
Catheter site pain: Events [1]: 1 n
Catheter site pain: Patients [1]: 1 (5.6) n (%)
Dehydration: Events [1]: 2 n
Dehydration: Patients [1]: 2 (11.1) n (%)
Dermatitis contact: Events [1]: 0 n
Dermatitis contact: Patients [1]: 0 n (%)
Device occlusion (central venous catheter for PS): Events [1]: 3 n
Device occlusion (central venous catheter for PS): Patients [1]: 2 (11.1) n (%)
Device-related infection (central venous catheter for PS): Events [1]: 9 n
Device-related infection (central venous catheter for PS): Patients [1]: 6 (33.3) n (%)
Diarrhea: Events [1]: 1 n
Diarrhea: Patients [1]: 1 (5.6) n (%)
Dry skin: Events [1]: 1 n
Dry skin: Patients [1]: 1 (5.6) n (%)
Enteritis: Events [1]: 1 n
Enteritis: Patients [1]: 1 (5.6) n (%)
Enterocolitis: Events [1]: 2 n
Enterocolitis: Patients [1]: 1 (5.6) n (%)
Eye disorder: Events [1]: 2 n
Eye disorder: Patients [1]: 2 (11.1) n (%)
Gastrointestinal disorders: Events [1]: 27 n
Gastrointestinal disorders: Patients [1]: 12 (66.7) n (%)
General disorders and administration site conditions: Events [1]: 21 n
General disorders and administration site conditions: Patients [1]: 9 (50.0) n (%)
Headache: Events [1]: 3 n
Headache: Patients [1]: 3 (16.7) n (%)
Hematuria: Events [1]: 1 n
Hematuria: Patients [1]: 1 (5.6) n (%)
Hemorrhage subcutaneous: Events [1]: 1 n
Hemorrhage subcutaneous: Patients [1]: 1 (5.6) n (%)
Hepatobiliary disorders: Events [1]: 3 n
Hepatobiliary disorders: Patients [1]: 2 (11.1) n (%)
Hypersensitivity: Events [1]: 0 n
Hypersensitivity: Patients [1]: 0 n (%)
Hypozincemia: Events [1]: 1 n
Hypozincemia: Patients [1]: 1 (5.6) n (%)
Immune system disorders: Events [1]: 0 n
Immune system disorders: Patients [1]: 0 n (%)
Infections and infestations: Events [1]: 19 n
Infections and infestations: Patients [1]: 8 (44.4) n (%)
Influenza: Events [1]: 0 n
Influenza: Patients [1]: 0 n (%)
Injection site reaction: Events [1]: 4 n
Injection site reaction: Patients [1]: 4 (22.2) n (%)
Injury, poisoning, and procedural complications: Events [1]: 5 n
Injury, poisoning, and procedural complications: Patients [1]: 4 (22.2) n (%)
Insomnia: Events [1]: 0 n
Insomnia: Patients [1]: 0 n (%)
Investigations: Events [1]: 9 n
Investigations: Patients [1]: 6 (33.3) n (%)
Metabolism and nutrition disorders: Events [1]: 6 n
Metabolism and nutrition disorders: Patients [1]: 4 (22.2) n (%)
Musculoskeletal and connective tissue disorders: Events [1]: 2 n
Musculoskeletal and connective tissue disorders: Patients [1]: 2 (11.1) n (%)
Nasopharyngitis: Events [1]: 3 n
Nasopharyngitis: Patients [1]: 3 (16.7) n (%)
Nausea: Events [1]: 1 n
Nausea: Patients [1]: 1 (5.6) n (%)
Nervous system disorders: Events [1]: 7 n
Nervous system disorders: Patients [1]: 4 (22.2) n (%)
Oral herpes: Events [1]: 1 n
Oral herpes: Patients [1]: 1 (5.6) n (%)
Oropharyngeal pain: Events [1]: 1 n
Oropharyngeal pain: Patients [1]: 1 (5.6) n (%)
Pruritus: Events [1]: 1 n
Pruritus: Patients [1]: 1 (5.6) n (%)
Psychiatric disorders: Events [1]: 0 n
Psychiatric disorders: Patients [1]: 0 n (%)
Pyrexia: Events [1]: 6 n
Pyrexia: Patients [1]: 6 (33.3) n (%)
Renal and urinary disorders: Events [1]: 2 n
Renal and urinary disorders: Patients [1]: 2 (11.1) n (%)
Respiratory, thoracic, and mediastinal disorders: Events [1]: 5 n
Respiratory, thoracic, and mediastinal disorders: Patients [1]: 5 (27.8) n (%)
Skin and subcutaneous tissue disorders: Events [1]: 5 n
Skin and subcutaneous tissue disorders: Patients [1]: 4 (22.2) n (%)
Somnolence: Events [1]: 0 n
Somnolence: Patients [1]: 0 n (%)
Stomatitis: Events [1]: 1 n
Stomatitis: Patients [1]: 1 (5.6) n (%)
Upper respiratory tract inflammation: Events [1]: 2 n
Upper respiratory tract inflammation: Patients [1]: 2 (11.1) n (%)
Vascular disorders: Events [1]: 2 n
Vascular disorders: Patients [1]: 2 (11.1) n (%)
Vascular pain: Events [1]: 0 n
Vascular pain: Patients [1]: 0 n (%)
Vomiting: Events [1]: 2 n
Vomiting: Patients [1]: 2 (11.1) n (%)
